Measured values from ChEMBL document CHEMBL1148876 (Bioorg Med Chem Lett, 2007).
Calls of active or inactive are those of the source. No cut-off for these calls is given here.

Assays:
MDCK = assay: (§1) Ratio of permeability from basolateral to apical over apical to basolateral side of the MDR-MDCK cells at 5 uM after 120 mins; type: ADME, cell-based; conditions: human, mdck, 2 h, 5 µM
HEK293 = assay: Cytotoxicity against HEK293 cells; type: functional, cell-based; conditions: Homo sapiens
[1] = Apparent permeability from apical to basolateral side in MDR-MDCK cells overexpressing human p-glycoprotein at 5 uM after 120 mins; type: ADME, cell-based; conditions: MDCK-MDR1
[2] = Apparent permeability from basolateral to apical side in MDR-MDCK cells overexpressing human p-glycoprotein at 5 uM after 120 mins; type: ADME, cell-based; conditions: MDCK-MDR1
[3] = Stability assessed as half life in PBS buffer; type: physicochemical
[4] = Stability assessed as half life in mouse plasma; type: ADME, cell-free
[5] = Stability in PBS assessed as percentage of remaining compound after 24 hrs; type: physicochemical; conditions: read-out: Activity
Tubulin (Homo sapiens) = Tubulin (Homo sapiens) (UniProt P68371+Q9H4B7+P0DPH7+P68366+Q13509+Q71U36+P04350+Q3ZCM7+P07437+P68363+Q9BQE3+Q6PEY2+Q13885+Q9BVA1+Q9BUF5); assay: Effect on tubulin polymerization by microtubule polymerization assay; type: protein-complex assay
[6] = as §1; type: ADME, cell-based; conditions: human, MDCK-MDR1
Homo sapiens = species: Homo sapiens; assay: Stability assessed as half life in human plasma

| Structure (SMILES) | Ratio (MDCK) | Papp A→B at 2 h, 5 µM [1] [×10⁻⁶ cm/s] | Papp B→A at 2 h, 5 µM [2] [×10⁻⁶ cm/s] | half-life [3] [h] | half-life [4] [h] | remaining at 24 h [5] [%] | Activity (Tubulin (Homo sapiens)) | efflux ratio at 2 h, 5 µM [6] | half-life (Homo sapiens) [h] | IC50 (HEK293) [nM] |
| --- | --- | --- | --- | --- | --- | --- | --- | --- | --- | --- |
| CC(=O)O[C@@]12CO[C@@H]1C[C@H](O)[C@@]1(C)C(=O)[C@H](OC(=O)N[C@H](C)C(=O)O)C3=C(C)[C@@H](OC(=O)[C@H](O)[C@@H](NC(=O)c4ccccc4)c4ccccc4)C[C@@](O)([C@@H](OC(=O)c4ccccc4)[C@H]21)C3(C)C |  | < 0.63 | < 0.63 |  |  |  |  |  |  | 2500 |
| CC(=O)O[C@@]12CO[C@@H]1C[C@H](O)[C@@]1(C)C(=O)[C@H](O)C3=C(C)[C@@H](OC(=O)[C@H](O)[C@@H](NC(=O)OC(C)(C)C)c4ccccc4)C[C@@](O)([C@@H](OC(=O)c4ccccc4)[C@H]21)C3(C)C.O.O.O [DOCETAXEL] | > 25 | < 0.62 | 15.5 |  |  |  | inactive |  |  | 27 |
| CC(=O)O[C@@]12CO[C@@H]1C[C@H](O)[C@@]1(C)C(=O)[C@H](OC(=O)N(C)C(C)(C)C(=O)O)C3=C(C)[C@@H](OC(=O)[C@H](O)[C@@H](NC(=O)c4ccccc4)c4ccccc4)C[C@@](O)([C@@H](OC(=O)c4ccccc4)[C@H]21)C3(C)C | 1 | 0.05 | 0.05 |  |  |  |  |  |  | 1000 |
| CC(=O)O[C@@]12CO[C@@H]1C[C@H](O)[C@@]1(C)C(=O)[C@H](OC(=O)N[C@@H](C)C(=O)O)C3=C(C)[C@@H](OC(=O)[C@H](O)[C@@H](NC(=O)c4ccccc4)c4ccccc4)C[C@@](O)([C@@H](OC(=O)c4ccccc4)[C@H]21)C3(C)C |  | < 0.06 | < 0.06 |  |  |  |  |  |  | 3900 |
| CC(=O)O[C@@]12CO[C@@H]1C[C@H](O)[C@@]1(C)C(=O)[C@H](OC(=O)N[C@H]3CCOC3=O)C3=C(C)[C@@H](OC(=O)[C@H](O)[C@@H](NC(=O)c4ccccc4)c4ccccc4)C[C@@](O)([C@@H](OC(=O)c4ccccc4)[C@H]21)C3(C)C | > 3 | < 0.07 | 0.21 |  |  |  |  |  |  | 1900 |
| CC(=O)O[C@@]12CO[C@@H]1C[C@H](O)[C@@]1(C)C(=O)[C@H](OC(=O)N3CCOCC3)C3=C(C)[C@@H](OC(=O)[C@H](O)[C@@H](NC(=O)c4ccccc4)c4ccccc4)C[C@@](O)([C@@H](OC(=O)c4ccccc4)[C@H]21)C3(C)C |  | 0.17 | 22.6 |  |  |  |  | 133 |  |  |
| CC(=O)O[C@@]12CO[C@@H]1C[C@H](O)[C@@]1(C)C(=O)[C@H](OC(=O)NCCO)C3=C(C)[C@@H](OC(=O)[C@H](O)[C@@H](NC(=O)c4ccccc4)c4ccccc4)C[C@@](O)([C@@H](OC(=O)c4ccccc4)[C@H]21)C3(C)C |  | < 0.21 | < 0.21 |  |  |  |  |  |  | 700 |
| CC(=O)O[C@@]12CO[C@@H]1C[C@H](O)[C@@]1(C)C(=O)[C@H](OC(=O)N(C)CC(=O)O)C3=C(C)[C@@H](OC(=O)[C@H](O)[C@@H](NC(=O)c4ccccc4)c4ccccc4)C[C@@](O)([C@@H](OC(=O)c4ccccc4)[C@H]21)C3(C)C | 0.9 | 0.06 | 0.05 |  |  |  |  |  |  | 1800 |
| CC(=O)O[C@@]12CO[C@@H]1C[C@H](O)[C@@]1(C)C(=O)[C@H](OC(=O)NCC(=O)O)C3=C(C)[C@@H](OC(=O)[C@H](O)[C@@H](NC(=O)OC(C)(C)C)c4ccccc4)C[C@@](O)([C@@H](OC(=O)c4ccccc4)[C@H]21)C3(C)C |  | < 0.2 | < 0.2 |  |  |  |  |  |  | 1700 |
| CC(=O)O[C@@]12CO[C@@H]1C[C@H](O)[C@@]1(C)C(=O)[C@H](OC(=O)N(C)[C@H](C)[C@H](O)c3ccccc3)C3=C(C)[C@@H](OC(=O)[C@H](O)[C@@H](NC(=O)c4ccccc4)c4ccccc4)C[C@@](O)([C@@H](OC(=O)c4ccccc4)[C@H]21)C3(C)C | > 127 | < 0.2 | 25.3 |  |  |  |  |  |  | 24 |
| CC(=O)O[C@@]12CO[C@@H]1C[C@H](O)[C@@]1(C)C(=O)[C@H](OC(=O)CCC(=O)O)C3=C(C)[C@@H](OC(=O)[C@H](O)[C@@H](NC(=O)c4ccccc4)c4ccccc4)C[C@@](O)([C@@H](OC(=O)c4ccccc4)[C@H]21)C3(C)C | 1.3 | 0.08 | 0.1 | > 60 | 19.5 | 75.1 |  |  | 15.3 | 4700 |
| CC(=O)O[C@@]12CO[C@@H]1C[C@H](O)[C@@]1(C)C(=O)[C@H](O)C3=C(C)[C@@H](OC(=O)[C@H](O)[C@@H](NC(=O)c4ccccc4)c4ccccc4)C[C@@](O)([C@@H](OC(=O)c4ccccc4)[C@H]21)C3(C)C |  | 0.13 | 5.17 |  |  |  |  | 39 |  | 76 |

Continued, in another order:

| Ratio (MDCK) | Papp A→B at 2 h, 5 µM [1] [×10⁻⁶ cm/s] | Papp B→A at 2 h, 5 µM [2] [×10⁻⁶ cm/s] | half-life [3] [h] | half-life [4] [h] | remaining at 24 h [5] [%] | Activity (Tubulin (Homo sapiens)) | efflux ratio at 2 h, 5 µM [6] | half-life (Homo sapiens) [h] | Structure (SMILES) | IC50 (HEK293) [nM] |
| --- | --- | --- | --- | --- | --- | --- | --- | --- | --- | --- |
| > 5.4 | < 0.62 | 3.36 |  |  |  |  |  |  | COC(=O)CNC(=O)O[C@H]1C(=O)[C@@]2(C)[C@H]([C@H](OC(=O)c3ccccc3)[C@]3(O)C[C@H](OC(=O)[C@H](O)[C@@H](NC(=O)c4ccccc4)c4ccccc4)C(C)=C1C3(C)C)[C@]1(OC(C)=O)CO[C@@H]1C[C@@H]2O | 60 |
| 0.9 | 0.07 | 0.06 |  |  |  |  |  |  | CC(=O)O[C@H]1C(=O)[C@]2(C)[C@@H](OC(=O)NCC(=O)O)C[C@H]3OC[C@@]3(OC(C)=O)[C@H]2[C@H](OC(=O)c2ccccc2)[C@]2(O)C[C@H](OC(=O)[C@H](O)[C@@H](NC(=O)c3ccccc3)c3ccccc3)C(C)=C1C2(C)C | > 25000 |
|  | 0.2 | 28.5 | > 60 | 30.1 | 85.2 | inactive |  |  | CC(=O)O[C@H]1C(=O)[C@@]2(C)[C@H]([C@H](OC(=O)c3ccccc3)[C@]3(O)C[C@H](OC(=O)[C@H](O)[C@@H](NC(=O)c4ccccc4)c4ccccc4)C(C)=C1C3(C)C)[C@]1(OC(C)=O)CO[C@@H]1C[C@@H]2O [PACLITAXEL] | 10 |
|  | 0.09 | 0.8 |  |  |  |  | 8.8 |  | CC(=O)O[C@@]12CO[C@@H]1C[C@H](O)[C@@]1(C)C(=O)[C@H](OC(=O)NCC(=O)N(C)C)C3=C(C)[C@@H](OC(=O)[C@H](O)[C@@H](NC(=O)c4ccccc4)c4ccccc4)C[C@@](O)([C@@H](OC(=O)c4ccccc4)[C@H]21)C3(C)C | 1000 |
|  | < 0.64 | < 0.64 |  |  |  |  |  |  | CC(=O)O[C@@]12CO[C@@H]1C[C@H](O)[C@@]1(C)C(=O)[C@H](OC(=O)NCCC(=O)O)C3=C(C)[C@@H](OC(=O)[C@H](O)[C@@H](NC(=O)c4ccccc4)c4ccccc4)C[C@@](O)([C@@H](OC(=O)c4ccccc4)[C@H]21)C3(C)C | 7400 |
|  | 0.09 | 0.05 | > 60 | 31.3 | 91.6 |  | 0.6 | 52 | CC(=O)O[C@@]12CO[C@@H]1C[C@H](O)[C@@]1(C)C(=O)[C@H](OC(=O)NCC(=O)O)C3=C(C)[C@@H](OC(=O)[C@H](O)[C@@H](NC(=O)c4ccccc4)c4ccccc4)C[C@@](O)([C@@H](OC(=O)c4ccccc4)[C@H]21)C3(C)C | 8300 |
